# Source: patent publication US12286452B2, “Amphiphilic aminoglycoside connexin hemichannel inhibitors” (Texas Tech University System, priority 2018, dated 2025)
# Where two headings read alike, the source gives them in different places.
# What was measured:
# Cx43 HCs [1] = target: T1, Cx43 HCs (Homo sapiens, UniProt P17302); test: Cx43-dependent growth complementation assay in E. coli LB2003; format: cell-based; conditions: for Cx43/Cx26 Selectivity: IC50 Cx26/IC50 Cx43
# T1 construct: expressed in transfected cells
# human Cx26 HCs [2] = target: T2, human Cx26 HCs (Homo sapiens, UniProt P29033); conditions: commercial aminoglycosides, the 16th table, adapted from ref. 1; cited from earlier work
# T2 construct: expressed in transfected cells; host or cells: E. coli LB2003 (carrying pREP4), transformed with pQE-Cx26, IPTG-induced
# Cx43 HCs [3] = target: T1, Cx43 HCs; conditions: commercial aminoglycosides, the 16th table, adapted from ref. 1; read-out: Cx43 IC50; cited from earlier work
# human Cx26 HCs [4] = target: T2, human Cx26 HCs; test: Cx26-dependent growth complementation assay in E. coli LB2003; format: cell-based
# Experimental: These derivatives were prepared by sequential benzylation and methylation followed by reduction of azido groups or hydrogenolysis of the Bn. […] Connexin HC inhibition was conducted using a bacteria-based assay of HC function^39. In this assay, Cx26 HCs are expressed in E. coli LB2003 cells, which lack three major K^+ uptake systems (Kdp, Kup and Trk), and as a result they cannot grow in low-[K^+] media^39-41. However, growth of this E. coli strain in low-[K^+] medium can be rescued by expression of K^+-permeable channels such as connexin HCs^39, 42-43. Under the conditions of the assay (LB2003 cells expressing HCs and grown in low-K^+ medium), inhibition of the HCs reduces or abolishes growth^39, 42-43. This is a simple assay where bacterial growth in multi-well plates can be followed by measuring the absorbance at 600 nm (OD600)^29.
# LB2003 cells generously provided by Dr. E. P. Bakker (Osnabruk University, Osnabruk, Germany) were transformed with the plasmid pQE-Cx26 (human Cx26 into pQE60) and pREP4. […] LB2003 cells cannot grow in low-[K^+] media because of insufficient K^+ uptake for growth due to the knockout of three key K^+ transporters (Atrk, Akup, Akdp strain)^2-4. Details and validation of the growth complementation assay have been published recently^2. In brief, competent LB2003 containing the pREP4 plasmid were transformed with pQE-Cx26. These cells were grown overnight in Luria-Bertani medium (BD, Franklin Lakes, NJ, USA) supplemented with 100 mM KCl (to allow growth) and 0.4 mg/mL ampicillin, and then washed four times with NLM (see below), to remove residual K^+ from the Luria-Bertani medium. The washed cells were resuspended in complementation growth medium to an OD600 of 0.2. NLM contained 46 mM Na2HPO4, 23 mM NaH2PO4, 8 mM (NH4)2SO4, 0.4 mM MgSO4, 0.012 mM FeSO4, 1 mM sodium citrate, 44 mM glucose and 0.006 mM thiamine hydrochloride, pH 7.0. KLM had the same composition that NLM except for the equimolar replacement of Na^+ with K^+. For growth complementation we used NLM+4 mM KCl, and Cx26 expression was induced with 0.5 mM IPTG at the time of dilution to OD600=0.2. For the assay, the cells were seeded in 96-well plates and were incubated at 30° C., with shaking at 500 rpm. OD600 was measured after 18-h incubation in a plate reader. The initial OD600=0.2 was subtracted for growth calculations. Data are presented as means±SEM. Statistically significant differences were calculated by the Student t-test for unpaired data. Data were obtained from at least 3 independent experiments, with 3 repeats per experiment.
# [5] = 15 μM, KI members, the 23rd table, read-out: Cx43 % inhibition
# [6] = 15 μM, Table 6, read-out: Cx43 (% inhibition)
# [7] = KI members, the 23rd table, read-out: Cx43 % inhibition
# [8] = Table 6, read-out: Cx43 (% inhibition)
# [9] = 15 μM, Table 3, read-out: Cx243% inhibition
# [10] = Table 3, read-out: Cx243% inhibition
# [11] = 4″,6″-disubstituted AKs, Table 5, read-out: Cx43 IC50
# [12] = first Table 2, read-out: IC50, inhibition of Cx26 by synthetic AGs
# T1 sequence (P17302 whole entry): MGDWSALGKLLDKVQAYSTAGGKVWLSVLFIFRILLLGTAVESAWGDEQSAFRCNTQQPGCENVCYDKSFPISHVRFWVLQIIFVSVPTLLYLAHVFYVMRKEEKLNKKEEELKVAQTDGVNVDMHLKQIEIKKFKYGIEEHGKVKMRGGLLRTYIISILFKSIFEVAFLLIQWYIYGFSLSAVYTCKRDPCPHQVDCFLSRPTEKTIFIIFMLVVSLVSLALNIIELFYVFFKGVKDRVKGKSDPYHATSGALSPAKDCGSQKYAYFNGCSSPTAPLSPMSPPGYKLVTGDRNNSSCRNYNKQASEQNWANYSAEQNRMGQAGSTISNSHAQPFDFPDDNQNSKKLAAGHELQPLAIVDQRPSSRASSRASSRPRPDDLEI
inhibition at 15 µM (Cx43 HCs [1]; [5]) [%],inhibition at 15 µM (Cx43 HCs [1]; [6]) [%],inhibition at 50 µM (Cx43 HCs [1]; [7]) [%],inhibition at 50 µM (Cx43 HCs [1]; [8]) [%],inhibition at 15 µM (human Cx26 HCs [4]; Table 3) [%],inhibition at 15 µM (human Cx26 HCs [4]; Table 6) [%],inhibition at 50 µM (human Cx26 HCs [4]; Table 3) [%],inhibition at 50 µM (human Cx26 HCs [4]; Table 6) [%],inhibition at 15 µM (Cx43 HCs [1]; [9]) [%],inhibition at 50 µM (Cx43 HCs [1]; [10]) [%],Compound,also measured
43.9 ± 4.3,> 50,58.2 ± 3.9,70.9 ± 2.3,16.4 ± 2.3,16.4 ± 2.3,56.2 ± 6.8,56.2 ± 6.8,–,–,CCCCCCCCCCCC(=O)NCC1O[C@H](OC2C(N)CC(N)C(OC3O[C@H](CO)C(O)C(N)[C@H]3O)[C@H]2O)C(O)C(O)[C@@H]1O (stereo partly shown) [KI04],"Cx43 inhibition (%) (Cx43 HCs [1]; 15 μM, Table 6, listed as 4i): 53.6 ± 4.6%; Cx43/Cx26 Selectivity (Cx43 HCs [1]; Table 7, listed as 4i): 6.88; IC50 (Cx43 HCs [1]; Table 7, read-out: Cx43 IC50): 9.7 ± 1.8 µM; Cx43 Imax (Cx43 HCs [1]; the 15th table, second Cx43 column, sub-head and unit not given): 82.2 ± 5.9; IC50 (Cx43 HCs [1]; the 15th table, sub-head and unit inferred, read-out: Cx43 IC50): 9.7 ± 1.8 µM; Cx26 Imax (human Cx26 HCs [4]; the 15th table, Cx26, sub-head and unit not given): 118.0 ± 7.6; IC50 (human Cx26 HCs [4]; the 15th table, Cx26, unit not given (cf. the 22nd table), read-out: Cx26 IC50): 66.7 ± 6.9 µM"
–,20 ± 7.4,–,34.8 ± 7.8,15.9 ± 4.2,15.9 ± 4.2,36.5 ± 4.7,36.5 ± 4.7,20 ± 7.4,34.8 ± 7.8,COc1ccc(OC[C@H]2OC(OC3C(N)CC(N)C(O[C@H]4OC(CN)[C@@H](O)C(O)C4O)[C@@H]3O)[C@H](O)C(N)C2O)cc1 (stereo partly shown) [Compound K81],"inhibition at 15 µM (Cx43 HCs [1]; 15 μM, K members, the 21st table, read-out: Cx43 % inhibition): 20 ± 7.4%; inhibition at 50 µM (Cx43 HCs [1]; K members, the 21st table, read-out: Cx43 % inhibition): 34.8 ± 7.8%"
56.8 ± 8.8,> 50,83.4 ± 1.1,83.4 ± 1.1,22.3 ± 6.9,22.3 ± 6.9,79.6 ± 3.5,79.6 ± 3.5,56.8 ± 8.8,83.4 ± 1.1,NC1CC(N)C(O[C@H]2OC(CNC(=O)c3ccccc3-c3c4ccc(=O)cc-4oc4ccc(O)cc34)[C@@H](O)C(O)C2O)[C@H](O)C1OC1O[C@H](CO)C(O)C(N)[C@H]1O (stereo partly shown) [KI10],"Cx43/Cx26 Selectivity (Cx43 HCs [1]; Table 7): 1.42; IC50 (Cx43 HCs [1]; Table 7, read-out: Cx43 IC50): 8.9 ± 3.7 µM; IC50 (human Cx26 HCs [4]; Table 7, read-out: Cx26 IC50): 12.7 ± 2.2 µM"
25.5 ± 7.1,25.5 ± 7.1,51 ± 2.5,51 ± 2.5,8.8 ± 2,8 ± 2,22.8 ± 2.2,22.8 ± 2.2,25.5 ± 7.1,51 ± 2.5,NC1CC(N)C(O[C@H]2OC(CNC(=O)c3cc(-c4ccccc4)nc4ccccc34)[C@@H](O)C(O)C2O)[C@H](O)C1OC1O[C@H](CO)C(O)C(N)[C@H]1O (stereo partly shown) [KI08],–

# Second part, the compound before the results:
Compound,inhibition at 15 µM (Cx43 HCs [1]; [5]) [%],inhibition at 15 µM (Cx43 HCs [1]; [6]) [%],inhibition at 50 µM (Cx43 HCs [1]; [7]) [%],inhibition at 50 µM (Cx43 HCs [1]; [8]) [%],inhibition at 15 µM (human Cx26 HCs [4]; Table 3) [%],inhibition at 15 µM (human Cx26 HCs [4]; Table 6) [%],inhibition at 50 µM (human Cx26 HCs [4]; Table 3) [%],inhibition at 50 µM (human Cx26 HCs [4]; Table 6) [%],inhibition at 15 µM (Cx43 HCs [1]; [9]) [%],inhibition at 50 µM (Cx43 HCs [1]; [10]) [%],also measured
NC[C@H]1O[C@H](O[C@H]2[C@H](O)[C@@H](O[C@H]3O[C@H](CO)[C@@H](O)[C@H](N)[C@H]3O)[C@H](N)C[C@@H]2N)[C@H](N)[C@@H](O)[C@@H]1O [Kanamycin B],–,–,–,–,–,–,–,–,–,–,Cx43/Cx26 Selectivity (Cx43 HCs [1]; the 16th table): 0.15; IC50 (human Cx26 HCs [2]): 3.6 ± 0.9 µM; IC50 (Cx43 HCs [3]): 24 ± 2 µM
"Cc1ccc(COCC2OC(OC3C(N)CC(N)C(OC4OC(CN)C(O)C(O)C4O)C3O)C(O)C(N)C2OCc2ccc(C)cc2)cc1 (stereo not shown) [Compound 11, 4″,6″-Di-O-(4-methylbenzyl) kanamycin]",–,–,–,–,–,–,–,–,–,–,"IC50 (Cx43 HCs [1]; [11]): 3.1 ± 0.9 µM; Cx43/Cx26 Selectivity (Cx43 HCs [1]; Table 5): 1.39; IC50 (Cx43 HCs [1]; K46 members, the 20th table, read-out: IC50 (μM) against Cx43): 3.1 ± 0.9 µM; Cx43 Imax (Cx43 HCs [1]; the 13th table): 80.4 ± 6%; IC50 (Cx43 HCs [1]; the 13th table, read-out: Cx43 IC50): 3.1 ± 0.9 µM; IC50 (human Cx26 HCs [4]; [12]): 4.3 ± 0.4 µM; Cx26 Imax (human Cx26 HCs [4]; the 13th table): 102 ± 3%"
Neomycin,–,–,–,–,–,–,–,–,–,–,Cx43/Cx26 Selectivity (Cx43 HCs [1]; the 16th table): 0.16; IC50 (human Cx26 HCs [2]): 7.4 ± 1.3 µM; IC50 (Cx43 HCs [3]): 45 ± 9 µM
"NCC1OC(OC2C(N)CC(N)C(OC3OC(COCc4ccc5ccccc5c4)C(OCc4ccc5ccccc5c4)C(N)C3O)C2O)C(O)C(O)C1O (stereo not shown) [Compound 14, 4″,6″-Di-O-(2-naphthalenmethyl) kanamycin]",–,–,–,–,–,–,–,–,–,–,IC50 (Cx43 HCs [1]; [11]): 6.2 ± 4.4 µM; Cx43/Cx26 Selectivity (Cx43 HCs [1]; Table 5): 1.07; IC50 (human Cx26 HCs [4]; [12]): 4.9 ± 0.2 µM
